Measured values reported in US20250171447A1, “ADENOSINE RECEPTOR ANTAGONISTS, PHARMACEUTICAL COMPOSITIONS AND THEIR USE THEREOF” (Merck Sharp & Dohme LLC, priority 2022, published 2025).

What was measured:
[1] = biological target: human A2A adenosine receptor (Homo sapiens (Human), UniProt P29274); assay: A2A receptor affinity binding assay (radioligand filtration binding or SPA, [3H]SCH58261); details: membranes from HEK293 or CHO cells expressing human A2A; Method (A) filtration or Method (B) SPA
human A2A adenosine receptor, sequence (P29274 whole entry): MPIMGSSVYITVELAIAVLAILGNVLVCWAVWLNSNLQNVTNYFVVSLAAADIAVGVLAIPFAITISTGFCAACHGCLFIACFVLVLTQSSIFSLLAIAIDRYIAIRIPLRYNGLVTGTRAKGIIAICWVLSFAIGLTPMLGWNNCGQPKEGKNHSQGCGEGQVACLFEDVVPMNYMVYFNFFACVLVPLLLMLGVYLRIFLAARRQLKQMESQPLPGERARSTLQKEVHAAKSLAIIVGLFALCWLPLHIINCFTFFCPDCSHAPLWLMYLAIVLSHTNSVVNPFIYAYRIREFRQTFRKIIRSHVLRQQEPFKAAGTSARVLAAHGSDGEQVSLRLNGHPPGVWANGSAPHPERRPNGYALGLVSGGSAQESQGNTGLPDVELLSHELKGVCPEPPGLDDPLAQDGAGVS

[2] = biological target: human A2B adenosine receptor (Homo sapiens (Human), UniProt P29275); assay: A2B binding affinity radioligand filtration binding assay; details: membranes from HEK293 cells expressing human A2B; tritiated proprietary A2B antagonist
human A2B adenosine receptor, sequence (P29275 whole entry): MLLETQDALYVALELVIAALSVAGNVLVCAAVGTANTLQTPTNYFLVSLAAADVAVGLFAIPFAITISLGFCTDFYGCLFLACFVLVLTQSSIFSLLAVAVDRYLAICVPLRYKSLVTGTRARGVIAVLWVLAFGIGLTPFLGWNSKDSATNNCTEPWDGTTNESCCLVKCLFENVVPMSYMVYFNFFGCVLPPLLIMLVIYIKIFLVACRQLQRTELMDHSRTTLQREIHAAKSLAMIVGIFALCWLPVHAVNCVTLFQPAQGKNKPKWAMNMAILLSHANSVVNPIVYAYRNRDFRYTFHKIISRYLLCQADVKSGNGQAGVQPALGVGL

Row | Compound | IC50 [1] [nM] | IC50 [2] [nM]
1 | COc1cccc2c1nc(N)n1nc([C@H]3C[C@H](c4ccc(C(C)(C)N)cn4)C3)nc21 [Ex-68, 2-((1r,3r)-3-(5-(2-aminopropan-2-yl)pyridin-2-yl)cyclobutyl)-7-methoxy-[1,2,4]triazolo[1,5-c]quinazolin-5-amine] | 2 | 2.2
2 | COc1cccc2c1nc(N)n1nc([C@H]3C[C@H](c4ncc(C(C)(C)N)cc4F)C3)nc21 [Ex-85, 2-{trans-3-[5-(2-aminopropan-2-yl)-3-fluoropyridin-2-yl]cyclobutyl}-7-methoxy[1,2,4]triazolo[1,5-c]quinazolin-5-amine] | 2.7 | 1.3
3 | COc1cccc2c1nc(N)n1nc([C@H]3C[C@@H](c4ccccc4)C3)nc21 [Ex-135, 7-methoxy-2-((1s,3s)-3-phenylcyclobutyl)-[1,2,4]triazolo[1,5-c]quinazolin-5-amine] | 7.3 | 35.3
4 | COc1cccc2c1nc(N)n1nc([C@H]3C[C@H](c4ccccc4)C3)nc21 [Ex-136, 7-methoxy-2-((1r,3r)-3-phenylcyclobutyl)-[1,2,4]triazolo[1,5-c]quinazolin-5-amine] | 2.2 | 116
5 | COc1cccc2c1nc(N)n1nc([C@H]3C[C@@](N)(c4ccc(C(C)(C)O)cn4)C3)nc21 [Ex-138, 2-(6-((l1,3r)-1-amino-3-(5-amino-7-methoxy-[1,2,4]triazolo[1,5-c]quinazolin-2-yl)cyclobutyl)pyridin-3-yl)propan-2-ol] | 9.8 | 12.5

The next lines start with the values.

Row | IC50 [1] [nM] | IC50 [2] [nM] | Compound
6 | 6.2 | 0.3 | COc1cc(F)cc2c1nc(N)n1nc(C3CC(c4ccc(C(C)(C)N)cn4)C3)nc21 (stereo not drawn) [Ex-69, 2-{3-[5-(2-aminopropan-2-yl)pyridin-2-yl]cyclobutyl}-9-fluoro-7-methoxy[1,2,4]triazolo[1,5-c]quinazolin-5-amine]
7 | 0.6 | 11.2 | COc1cccc2c1nc(N)n1nc([C@H]3C[C@H](c4ncc(C(C)(C)N)nc4C)C3)nc21 [Ex-90, 2-((1r,3r)-3-(5-(2-aminopropan-2-yl)-3-methylpyrazin-2-yl)cyclobutyl)-7-methoxy-[1,2,4]triazolo[1,5-c]quinazolin-5-amine]
8 | 4 | 2.1 | COc1cccc2c1nc(N)n1nc([C@H]3C[C@@](O)(c4ccc(C(C)(C)O)cn4)C3)nc21 [Ex-137, (1r,3r)-3-(5-amino-7-methoxy-[1,2,4]triazolo[1,5-c]quinazolin-2-yl)-1-(5-(2-hydroxypropan-2-yl)pyridin-2-yl)cyclobutan-1-ol]
9 | 35.9 | 2490 | COc1cc(F)cc2c1nc(N)n1nc([C@H]3C[C@](O)(c4ccc(C(C)(C)O)nc4)C3)nc21 [Ex-139, (1s,3s)-3-(5-amino-9-fluoro-7-methoxy-[1,2,4]triazolo[1,5-c]quinazolin-2-yl)-1-(6-(2-hydroxypropan-2-yl)pyridin-3-yl)cyclobutan-1-ol]
